# Data as given in US20230085307A1, “PYRIDAZINONE COMPOUND AND HERBICIDE” (NISSAN CHEMICAL CORPORATION, priority 2019, published 2023).
# Assays:
# late watergrass = assay: Test Example 1: herbicidal activity, application before weed generation under submerged conditions (Table 16, symbol A); assay type: in vivo, late watergrass (Echinochloa oryzicola)
# Procedure, shortened: (§1)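 Submerged Wagner pots (alluvial soil, 4 cm water) sown with weed seeds and planted with 2.5-leaf rice seedlings; emulsifiable concentrate diluted in water applied to water surface on sowing day. Held in greenhouse at 25-30 °C; injury scored 0-5 by herbicidal rate after three weeks.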
# Japanese bulrush = assay: Test Example 1: herbicidal activity, application before weed generation under submerged conditions (Table 16, symbol B); assay type: in vivo, Japanese bulrush (Schoenoplectus juncoides)
# Procedure, shortened: as §1
# oval-leafed pondweed = assay: Test Example 1: herbicidal activity, application before weed generation under submerged conditions (Table 16, symbol C); assay type: in vivo, oval-leafed pondweed (Monochoria vaginalis)
# Procedure, shortened: as §1
# barnyard grass [1] = assay: Test Example 3: herbicidal effect by foliage application, Wagner pot (Table 18, symbol H); assay type: in vivo, barnyard grass (Echinochloa crus-galli); conditions: 320 g/ha
# Procedure, shortened: (§2)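 Plants were sown in alluvial soil held under 0.1–0.5 cm standing water and grown 14 days in a greenhouse at 25–30 °C. An emulsifiable formulation, water-diluted to the set dose, was then sprayed onto the foliage, and effects were scored three weeks later using previously defined criteria.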
# Chinese sprangletop = assay: Test Example 3: herbicidal effect by foliage application, Wagner pot (Table 18, symbol D); assay type: in vivo, chinese sprangletop (Leptochloa chinensis); conditions: 320 g/ha
# Procedure, shortened: as §2
# rice flat sedge = assay: Test Example 3: herbicidal effect by foliage application, Wagner pot (Table 18, symbol E); assay type: in vivo, rice flat sedge (Cyperus iria); conditions: 320 g/ha
# Procedure, shortened: as §2
# southern crabgrass [2] = assay: Test Example 4: herbicidal effect by soil treatment (Table 19, symbol F); assay type: in vivo, southern crabgrass (Digitaria ciliaris)
# Procedure, shortened: (§3)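 Step 1: sow seeds in sterilized diluvial soil, cover ~1.5 cm. Step 2: spray diluted emulsion onto soil surface at predetermined rate. Step 3: greenhouse, 25–30° C, three weeks. Step 4: grade effect on each plant by earlier criteria.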
# green foxtail [3] = assay: Test Example 4: herbicidal effect by soil treatment (Table 19, symbol G); assay type: in vivo, green foxtail (Setaria viridis)
# Procedure, shortened: as §3
# barnyard grass [4] = assay: Test Example 4: herbicidal effect by soil treatment (Table 19, symbol H); assay type: in vivo, barnyard grass (Echinochloa crus-galli)
# Procedure, shortened: as §3
# wild oat [5] = assay: Test Example 4: herbicidal effect by soil treatment (Table 19, symbol I); assay type: in vivo, wild oat (Avena fatua)
# Procedure, shortened: as §3
# blackgrass [6] = assay: Test Example 4: herbicidal effect by soil treatment (Table 19, symbol J); assay type: in vivo, blackgrass (Alopecurus myosuroides)
# Procedure, shortened: as §3
# Italian ryegrass [7] = assay: Test Example 4: herbicidal effect by soil treatment (Table 19, symbol K); assay type: in vivo, Italian ryegrass (Lolium multiflorum)
# Procedure, shortened: as §3
# windgrass [8] = assay: Test Example 4: herbicidal effect by soil treatment (Table 19, symbol L); assay type: in vivo, windgrass (Apera spica-venti)
# Procedure, shortened: as §3
# velvetleaf [9] = assay: Test Example 4: herbicidal effect by soil treatment (Table 19, symbol M); assay type: in vivo, velvetleaf (Abutilon theophrasti)
# Procedure, shortened: as §3
# redroot pigweed [10] = assay: Test Example 4: herbicidal effect by soil treatment (Table 19, symbol N); assay type: in vivo, redroot pigweed (Amaranthus retroflexus)
# Procedure, shortened: as §3
# lambsquarters [11] = assay: Test Example 4: herbicidal effect by soil treatment (Table 19, symbol O); assay type: in vivo, lambsquarters (Chenopodium album)
# Procedure, shortened: as §3
# chickweed [12] = assay: Test Example 4: herbicidal effect by soil treatment (Table 19, symbol P); assay type: in vivo, common chickweed (Stellaria media)
# Procedure, shortened: as §3
# persian speedwell [13] = assay: Test Example 4: herbicidal effect by soil treatment (Table 19, symbol R); assay type: in vivo, Persian speedwell (Veronica persica)
# Procedure, shortened: as §3
# southern crabgrass [14] = assay: Test Example 5: herbicidal effect by foliage application, plastic box (Table 20, symbol F); assay type: in vivo, southern crabgrass (Digitaria ciliaris); conditions: foliage application, 320 g/ha
# Procedure, shortened: (§4)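 Foliar spray test: emulsion formulation diluted in water to a set application rate, sprayed onto 14-day-old plants raised in diluvial soil at 25° C to 30° C under glass. Both herbicidal effect and crop effect rated visually three weeks later.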
# green foxtail [15] = assay: Test Example 5: herbicidal effect by foliage application, plastic box (Table 20, symbol G); assay type: in vivo, green foxtail (Setaria viridis); conditions: foliage application, 320 g/ha
# Procedure, shortened: as §4
# barnyard grass [16] = assay: Test Example 5: herbicidal effect by foliage application, plastic box (Table 20, symbol H); assay type: in vivo, barnyard grass (Echinochloa crus-galli); conditions: foliage application, 320 g/ha
# Procedure, shortened: as §4
# wild oat [17] = assay: Test Example 5: herbicidal effect by foliage application, plastic box (Table 20, symbol I); assay type: in vivo, wild oat (Avena fatua); conditions: foliage application, 320 g/ha
# Procedure, shortened: as §4
# blackgrass [18] = assay: Test Example 5: herbicidal effect by foliage application, plastic box (Table 20, symbol J); assay type: in vivo, blackgrass (Alopecurus myosuroides); conditions: foliage application, 320 g/ha
# Procedure, shortened: as §4
# Italian ryegrass [19] = assay: Test Example 5: herbicidal effect by foliage application, plastic box (Table 20, symbol K); assay type: in vivo, Italian ryegrass (Lolium multiflorum); conditions: foliage application, 320 g/ha
# Procedure, shortened: as §4
# windgrass [20] = assay: Test Example 5: herbicidal effect by foliage application, plastic box (Table 20, symbol L); assay type: in vivo, windgrass (Apera spica-venti); conditions: foliage application, 320 g/ha
# Procedure, shortened: as §4
# velvetleaf [21] = assay: Test Example 5: herbicidal effect by foliage application, plastic box (Table 20, symbol M); assay type: in vivo, velvetleaf (Abutilon theophrasti); conditions: foliage application, 320 g/ha
# Procedure, shortened: as §4
# redroot pigweed [22] = assay: Test Example 5: herbicidal effect by foliage application, plastic box (Table 20, symbol N); assay type: in vivo, redroot pigweed (Amaranthus retroflexus); conditions: foliage application, 320 g/ha
# Procedure, shortened: as §4
# lambsquarters [23] = assay: Test Example 5: herbicidal effect by foliage application, plastic box (Table 20, symbol O); assay type: in vivo, lambsquarters (Chenopodium album); conditions: foliage application, 320 g/ha
# Procedure, shortened: as §4
# chickweed [24] = assay: Test Example 5: herbicidal effect by foliage application, plastic box (Table 20, symbol P); assay type: in vivo, common chickweed (Stellaria media); conditions: foliage application, 320 g/ha
# Procedure, shortened: as §4
# persian speedwell [25] = assay: Test Example 5: herbicidal effect by foliage application, plastic box (Table 20, symbol R); assay type: in vivo, Persian speedwell (Veronica persica); conditions: foliage application, 320 g/ha
# Procedure, shortened: as §4
# [26] = evaluated three weeks after application
# [27] = amount of applied herbicide 320 g/ha
smiles,measurement,setting,value
Cc1nn(C)c(=O)c(-c2c(-c3ccc(Cl)c(Cl)c3)sc3ccc(F)cc23)c1O [2-081],Herbicidal effect on A: late watergrass (grade 0-5),late watergrass; 320 g/ha applied herbicide,4 (Herbicidal rate of 70% or more and less than 90%)
same,Herbicidal effect on B: Japanese bulrush (grade 0-5),Japanese bulrush; 320 g/ha applied herbicide,2 (Herbicidal rate of 20% or more and less than 40%)
same,Herbicidal effect on C: oval-leafed pondweed (grade 0-5),oval-leafed pondweed; 320 g/ha applied herbicide,0 (Herbicidal rate of 5% or less (almost no effect))
same,"herbicidal effect on H (barnyard grass), rating 0-5",barnyard grass [1],5 (Herbicidal rate of 90% or more (almost completely withered))
same,"herbicidal effect on D (Chinese sprangletop), rating 0-5",Chinese sprangletop,3 (Herbicidal rate of 40% or more and less than 70%)
same,"herbicidal effect on E (rice flat sedge), rating 0-5",rice flat sedge,5 (Herbicidal rate of 90% or more (almost completely withered))
same,"herbicidal effect rating, F: southern crabgrass",southern crabgrass [2]; 320 g/ha,0 (Herbicidal rate of 5% or less (almost no effect))
same,"herbicidal effect rating, G: green foxtail",green foxtail [3]; 320 g/ha,0 (Herbicidal rate of 5% or less (almost no effect))
same,"herbicidal effect rating, H: barnyard grass",barnyard grass [4]; 320 g/ha,0 (Herbicidal rate of 5% or less (almost no effect))
same,"herbicidal effect rating, I: wild oat",wild oat [5]; 320 g/ha,0 (Herbicidal rate of 5% or less (almost no effect))
same,"herbicidal effect rating, J: blackgrass",blackgrass [6]; 320 g/ha,0 (Herbicidal rate of 5% or less (almost no effect))
same,"herbicidal effect rating, K: Italian ryegrass",Italian ryegrass [7]; 320 g/ha,4 (Herbicidal rate of 70% or more and less than 90%)
same,"herbicidal effect rating, L: windgrass",windgrass [8]; 320 g/ha,0 (Herbicidal rate of 5% or less (almost no effect))
same,"herbicidal effect rating, M: velvetleaf",velvetleaf [9]; 320 g/ha,3 (Herbicidal rate of 40% or more and less than 70%)
same,"herbicidal effect rating, N: redroot pigweed",redroot pigweed [10]; 320 g/ha,5 (Herbicidal rate of 90% or more (almost completely withered))
same,"herbicidal effect rating, O: lambsquarters",lambsquarters [11]; 320 g/ha,4 (Herbicidal rate of 70% or more and less than 90%)
same,"herbicidal effect rating, P: chickweed",chickweed [12]; 320 g/ha,3 (Herbicidal rate of 40% or more and less than 70%)
same,"herbicidal effect rating, R: persian speedwell",persian speedwell [13]; 320 g/ha,4 (Herbicidal rate of 70% or more and less than 90%)
same,herbicidal effect on F: southern crabgrass,southern crabgrass [14]; [26],4 (Herbicidal rate of 70% or more and less than 90%)
same,herbicidal effect on G: green foxtail,green foxtail [15]; [26],5 (Herbicidal rate of 90% or more (almost completely withered))
same,herbicidal effect on H: barnyard grass,barnyard grass [16]; [26],5 (Herbicidal rate of 90% or more (almost completely withered))
same,herbicidal effect on I: wild oat,wild oat [17]; [26],4 (Herbicidal rate of 70% or more and less than 90%)
same,herbicidal effect on J: blackgrass,blackgrass [18]; [26],2 (Herbicidal rate of 20% or more and less than 40%)
same,herbicidal effect on K: Italian ryegrass,Italian ryegrass [19]; [26],5 (Herbicidal rate of 90% or more (almost completely withered))
same,herbicidal effect on L: windgrass,windgrass [20]; [26],5 (Herbicidal rate of 90% or more (almost completely withered))
same,herbicidal effect on M: velvetleaf,velvetleaf [21]; [26],5 (Herbicidal rate of 90% or more (almost completely withered))
same,herbicidal effect on N: redroot pigweed,redroot pigweed [22]; [26],5 (Herbicidal rate of 90% or more (almost completely withered))
same,herbicidal effect on O: lambsquarters,lambsquarters [23]; [26],5 (Herbicidal rate of 90% or more (almost completely withered))
same,herbicidal effect on P: chickweed,chickweed [24]; [26],5 (Herbicidal rate of 90% or more (almost completely withered))
same,herbicidal effect on R: persian speedwell,persian speedwell [25]; [26],5 (Herbicidal rate of 90% or more (almost completely withered))
Cc1nn(C)c(=O)c(-c2c(-c3ccc(OC(C)C)cc3)sc3cc(Cl)ccc23)c1O [3-041],"Herbicidal effect, A: late watergrass",late watergrass; [27],2 (Herbicidal rate of 20% or more and less than 40%)
same,"Herbicidal effect, B: Japanese bulrush",Japanese bulrush; [27],0 (Herbicidal rate of 5% or less (almost no effect))
same,"Herbicidal effect, C: oval-leafed pondweed",oval-leafed pondweed; [27],0 (Herbicidal rate of 5% or less (almost no effect))
same,herbicidal effect on barnyard grass (H),barnyard grass [1],2 (Herbicidal rate of 20% or more and less than 40%)
same,herbicidal effect on Chinese sprangletop (D),Chinese sprangletop,0 (Herbicidal rate of 5% or less (almost no effect))
same,herbicidal effect on rice flat sedge (E),rice flat sedge,1 (Herbicidal rate of 5% or more and less than 20%)
same,"F: southern crabgrass, herbicidal effect grade",southern crabgrass [2]; [27],0 (Herbicidal rate of 5% or less (almost no effect))
same,"G: green foxtail, herbicidal effect grade",green foxtail [3]; [27],0 (Herbicidal rate of 5% or less (almost no effect))
same,"H: barnyard grass, herbicidal effect grade",barnyard grass [4]; [27],0 (Herbicidal rate of 5% or less (almost no effect))
same,"I: wild oat, herbicidal effect grade",wild oat [5]; [27],0 (Herbicidal rate of 5% or less (almost no effect))
same,"J: blackgrass, herbicidal effect grade",blackgrass [6]; [27],0 (Herbicidal rate of 5% or less (almost no effect))
same,"K: Italian ryegrass, herbicidal effect grade",Italian ryegrass [7]; [27],0 (Herbicidal rate of 5% or less (almost no effect))
same,"L: windgrass, herbicidal effect grade",windgrass [8]; [27],0 (Herbicidal rate of 5% or less (almost no effect))
same,"M: velvetleaf, herbicidal effect grade",velvetleaf [9]; [27],0 (Herbicidal rate of 5% or less (almost no effect))
same,"N: redroot pigweed, herbicidal effect grade",redroot pigweed [10]; [27],0 (Herbicidal rate of 5% or less (almost no effect))
same,"O: lambsquarters, herbicidal effect grade",lambsquarters [11]; [27],0 (Herbicidal rate of 5% or less (almost no effect))
same,"P: chickweed, herbicidal effect grade",chickweed [12]; [27],1 (Herbicidal rate of 5% or more and less than 20%)
same,"R: persian speedwell, herbicidal effect grade",persian speedwell [13]; [27],2 (Herbicidal rate of 20% or more and less than 40%)
same,"F: southern crabgrass, herbicidal effect grade",southern crabgrass [14]; three weeks after application,0 (Herbicidal rate of 5% or less (almost no effect))
same,"G: green foxtail, herbicidal effect grade",green foxtail [15]; three weeks after application,0 (Herbicidal rate of 5% or less (almost no effect))
same,"H: barnyard grass, herbicidal effect grade",barnyard grass [16]; three weeks after application,0 (Herbicidal rate of 5% or less (almost no effect))
same,"I: wild oat, herbicidal effect grade",wild oat [17]; three weeks after application,0 (Herbicidal rate of 5% or less (almost no effect))
same,"J: blackgrass, herbicidal effect grade",blackgrass [18]; three weeks after application,0 (Herbicidal rate of 5% or less (almost no effect))
same,"K: Italian ryegrass, herbicidal effect grade",Italian ryegrass [19]; three weeks after application,0 (Herbicidal rate of 5% or less (almost no effect))
same,"L: windgrass, herbicidal effect grade",windgrass [20]; three weeks after application,0 (Herbicidal rate of 5% or less (almost no effect))
same,"M: velvetleaf, herbicidal effect grade",velvetleaf [21]; three weeks after application,0 (Herbicidal rate of 5% or less (almost no effect))
same,"N: redroot pigweed, herbicidal effect grade",redroot pigweed [22]; three weeks after application,2 (Herbicidal rate of 20% or more and less than 40%)
same,"O: lambsquarters, herbicidal effect grade",lambsquarters [23]; three weeks after application,1 (Herbicidal rate of 5% or more and less than 20%)
same,"P: chickweed, herbicidal effect grade",chickweed [24]; three weeks after application,3 (Herbicidal rate of 40% or more and less than 70%)
same,"R: persian speedwell, herbicidal effect grade",persian speedwell [25]; three weeks after application,5 (Herbicidal rate of 90% or more (almost completely withered))
